Results: patent US8044057B2, “Methods for suppressing an immune response or treating a proliferative disorder” (The United States of America as represented by the …, priority 2003, dated 2011)

How the values were obtained:
[1] = tested on: P70 S6 kinase; experiment: Western blot of phospho-p70 S6 kinase T389 in A549 cells; format: cell-based, human
Procedure: (§1) A549 cells were treated without or with 100 mcM LY303511, 200 ng/ml rapamycin, or 50 nM wortmannin in serum free media for 1 hour before addition of E. coli lipopolysaccharide (LPS), […] and interferon (IFN)-γ, 100 U/ml (LPS/IFN-γ or “L/I”). Cells were homogenized and the indicated proteins (see Table 1) were detected by Western blot. Western blots are from the same experiment, and representative of three experiments.
(§2) In another experiment, A549 cells were grown to sub-confluence in serum-containing media, and incubated with a vehicle, 100 mcM LY303511, or rapamycin, 200 ng/ml for 0, 12, or 24 hours. Cells were lysed, and proteins separated by SDS-PAGE before transfer to nitrocellulose membranes. Membranes were incubated with antibodies against p27Kip1, p21 Cip1 orphospho-P70 S6 kinase T389.
Measurement of protein phosphorylation: A549 cells were incubated in serum-free medium without or with inhibitors for 1 hour, as indicated, before incubation for 30 minutes with a mixture of LPS, 100 μg/ml (Sigma; St. Louis, Mo.) and IFN-γ, 100 U/ml (Roche; Nutley, N.J.). PASM cells were incubated in serum-free medium without or with inhibitors for 24 h as indicated, before incubation for 30 min with 10% FBS. A549 or PASM cells were washed once with cold PBS and incubated for 15 minutes on ice ih lysis buffer (20 mM Tris pH 8.0, 1% Nonidet P-40, 1 mM EDTA, 5 mM benzamidine, aprotinin, 10 μg/ml, leupeptin, 10 μg/ml, trypsin soybean inhibitor, 1 mM PMSF, 50 mM sodium fluoride, 100 μM sodium orthovanadate, and 1: 100 Sigma phosphatase inhibitor set I containing cantharidin, microcystin LR and bromotetramizole). After freezing and thawing, lysates were centrifuged for 30 min at 16,000×g before protein measurement and storage at −80° C. Equal amounts of total protein were separated by SDS-PAGE, and transferred to a nitrocellulose membrane, before immunoblotting with primary antibodies as indicated. Membranes were treated with anti-rabbit IgG or anti-mouse IgG antibodies (Promega; Madison, Wis.) linked to horseradish peroxidase, developed using an enhanced chemiluminescence detection kit (SuperSignal West Pico, Pierce; Rockford, Ill.), and exposed to X-ray film, which was scanned using an Epson Expression 636 scanner. Integrated band densities were quantified using Scion Image beta 3b software.

[2] = tested on: AKT; experiment: Western blot of phospho-Akt S473 in A549 cells; format: cell-based, human
Procedure: as §1
Measurement of protein phosphorylation: A549 cells were incubated in serum-free medium without or with inhibitors for 1 hour, as indicated, before incubation for 30 minutes with a mixture of LPS, 100 μg/ml (Sigma; St. Louis, Mo.) and IFN-γ, 100 U/ml (Roche; Nutley, N.J.). PASM cells were incubated in serum-free medium without or with inhibitors for 24 h as indicated, before incubation for 30 min with 10% FBS. A549 or PASM cells were washed once with cold PBS and incubated for 15 minutes on ice ih lysis buffer (20 mM Tris pH 8.0, 1% Nonidet P-40, 1 mM EDTA, 5 mM benzamidine, aprotinin, 10 μg/ml, leupeptin, 10 μg/ml, trypsin soybean inhibitor, 1 mM PMSF, 50 mM sodium fluoride, 100 μM sodium orthovanadate, and 1: 100 Sigma phosphatase inhibitor set I containing cantharidin, microcystin LR and bromotetramizole). […] Integrated band densities were quantified using Scion Image beta 3b software.

[3] = tested on: A549 cells; experiment: Western blot of cell cycle inhibitors, cyclins and phospho-Rb in A549 cells; format: cell-based, human
Procedure: FIGS. 3A-3B are bar graphs and digital images showing the effect of LY303511 on the levels of cell cycle inhibitors and cyclins. A549 cells (˜1×10^6 cells per 100-mm dish) were grown for 48 h before addition of 0.1% DMSO, 100 μM LY303511, or rapamycin, 200 ng/ml, for 0, 12, or 24 hours. At the indicated times, cells were homogenized and stored at −80° C. For Western blot analyses, samples (70 μg) of lysate proteins separated by SDS-PAGE were transferred to nitrocellulose membranes and reacted with the following antibodies: A. Phospho-S6K T389 (pS6K), p27 Kip1, p21 Cip1, phospho-Rb S807/S811, or B. Cyclin A, Cyclin B, Cyclin D, and Cyclin E. All blots are from one experiment. Data below (relative density) are means of densitometric values from duplicate dishes treated with inhibitors for 24 hours relative to DMSO control=1.0 in three experiments. *p<0.05 vs. DMSO control by Student's t-test.
as §2

[4] = tested on: PC-3 cells; experiment: PC-3 prostate adenocarcinoma tumor growth in nude mice; format: in vivo, mouse
Procedure: FIG. 6A-6B are bar graphs showing that LY303511 inhibits the growth of prostate adenocarcinoma cells (PC-3) cells in nude mice. LY303511, 10 mg/kg/d was administered intraperitoneally to attenuate PC-3 tumor growth in nude mice. The degree of growth inhibition was proportional to the duration of treatment with LY303511. […] FIG. 6C is a graph of a Kaplan-Mieir survival analysis. The analysis includes the premise that an event happens when a tumor reaches 300 mm^3. The y-axis depicts the probability that tumor size is less than 300 mm^3.
The effect of LY303511 on tumor growth was assessed in vivo. Human prostate adenocarcinoma cells (PC-3 cells, ATCC No. CTL-1435) were culture in vitro 5 before harvesting and implantation. For each mouse, 1×10^6 cells in 20% Matrigel™ (matrix) were implanted by subcutaneous injection into the flank. Mice were subdivided into six groups of ten mice each. Treatment protocols were begun (Day 1) when tumors reached approximately 150 mm^3, and tumor volumes (=Caliper length×width^2/2) were measured for thirty days at the indicated time points. Data were expressed as the average tumor volume +/− SEM for each treatment group and time point. The data is shown both in FIG. 6A and 6B. (*p<0.05 by one way ANOVA for inter-group comparisons at each time point. FIG. 6C is a Kaplan-meier analysis, representing the probability that tumor volumes are less than 300 mm^3 at any given time point (p<0.001 by log-rank test for inter-group comparison).

[5] = tested on: A549 cells; experiment: KI-67 immunostaining in A549 cells; format: cell-based, human; conditions: 24 hours
Excerpt: Slides were mounted in solution containing DAPI to stain nuclei. Photos were captured using equal laser intensity and gain.

[6] = tested on: STAT1; experiment: STAT1-driven luciferase reporter (GAS-luc) in A549 cells; format: cell-based, human; conditions: 100 mcM LY303511 1 hour before LPS/IFN-γ for 6 hours
Procedure: (§3) A549 cells were transiently transfected with a reporter vector expressing firefly luciferase driven by STAT1 (GAS-luc, Clontech), and incubated without or with 100 mcM LY303511, rapamycin, 200 ng/ml, or both, for 1 hour before addition of LPS/IFN-γ for 6 hours. STAT1 activity (luciferase activity) was measured in cell lysates (RLU). The data presented are triplicate samples ±SEM, and are representative of two independent experiments.
as §3, with “presented in FIG. 8” for “presented”, “samples±SEM,” for “samples ±SEM,”

[7] = 100 mcM LY303511 or rapamycin 200 ng/ml, 12 and 24 hours

IC50 ([1]; Homo sapiens, A549 cells, stimulated, densitometric analysis of pS6K phosphoblots, read-out: IC50 for inhibition of S6K phosphorylation): ~10 µM
Compound: O=c1cc(N2CCNCC2)oc2c(-c3ccccc3)cccc12 [LY303511, 2-(4-piperazinyl)-8-phenyl-4H-1-benzopyran-4-one]
phosphorylation of P70 S6 kinase at T389 ([1]; A549 cells in serum-containing media, 100 mcM LY303511 or rapamycin 200 ng/ml, 12 and 24 hours): blocked phosphorylation of P70 S6 kinase at T389
lowest concentration inhibiting LPS/IFNγ-stimulated mTOR activity and mTOR-dependent phosphorylation of S6K ([1]; A549 cells, LPS/IFNγ-stimulated): 1 µM
phosphorylation of P70 S6 kinase (pS6K T389) ([1]; A549 cells, 100 mcM LY303511, rapamycin 200 ng/ml or wortmannin for 1 hour before LPS/IFN-γ, Western blot): blocks phosphorylation of P70 S6 kinase
inhibition of phosphorylation of Akt ([2]; even at 100 mcM): does not inhibit phosphorylation of Akt
phosphorylation of AKT (S473) ([2]; inhibitors 1 hour before LPS/IFN-γ, Western blot): increase phosphorylation of AKT
phosphorylation of Rb (S807/S811) ([3]; 100 mcM LY303511): reduced the phosphorylation of Rb
levels of cyclin A and B ([3]; 100 mcM LY303511 or rapamycin 200 ng/ml): decreased levels of cyclin A and B
p21 Cip1 level [3, 7]: significant increase in p21 Cip1
p27Kip1 level [3, 7]: accumulation of p27Kip1
degree of growth inhibition versus duration of treatment ([4]; 10 mg/kg daily for 5, 10 or 20 days): direct proportional to the duration of treatment
tumor growth inhibition, 20 day course versus ten day course ([4]; 10 mg/kg daily, FIG. 6C): as effective at inhibiting tumor growth as a ten day course
PC-3 tumor growth ([4]; 10 mg/kg intraperitoneally daily): inhibited the growth of prostate adenocarcinoma cells
tumor burden ([4]; LY303511 10 mg/kg daily, Doxorubicin 10 mg/kg once on Day 1): decrease tumor burden
whole cell KI-67 levels [5]: significant decrease in whole cell KI-67 levels
STAT1 activation (luciferase activity) [6]: inhibited STAT1 activation
